In ChEMBL document CHEMBL1129157, “Design and synthesis of a new class of conformationally constrained inhibitors to probe the active sites of thermolysine and neutral endopeptidase 24.11” (Bioorg Med Chem Lett, 1996):

Experiments:
[1] = Compound was tested for inhibition of thermolysine, a bacterial zinc-endopeptidase; type: functional
Neprilysin = target: T1, Neprilysin (Rattus norvegicus, UniProt P07861); assay: Compound was tested for inhibition of rat kidney neutral endopeptidase
T1 sequence (P07861 whole entry): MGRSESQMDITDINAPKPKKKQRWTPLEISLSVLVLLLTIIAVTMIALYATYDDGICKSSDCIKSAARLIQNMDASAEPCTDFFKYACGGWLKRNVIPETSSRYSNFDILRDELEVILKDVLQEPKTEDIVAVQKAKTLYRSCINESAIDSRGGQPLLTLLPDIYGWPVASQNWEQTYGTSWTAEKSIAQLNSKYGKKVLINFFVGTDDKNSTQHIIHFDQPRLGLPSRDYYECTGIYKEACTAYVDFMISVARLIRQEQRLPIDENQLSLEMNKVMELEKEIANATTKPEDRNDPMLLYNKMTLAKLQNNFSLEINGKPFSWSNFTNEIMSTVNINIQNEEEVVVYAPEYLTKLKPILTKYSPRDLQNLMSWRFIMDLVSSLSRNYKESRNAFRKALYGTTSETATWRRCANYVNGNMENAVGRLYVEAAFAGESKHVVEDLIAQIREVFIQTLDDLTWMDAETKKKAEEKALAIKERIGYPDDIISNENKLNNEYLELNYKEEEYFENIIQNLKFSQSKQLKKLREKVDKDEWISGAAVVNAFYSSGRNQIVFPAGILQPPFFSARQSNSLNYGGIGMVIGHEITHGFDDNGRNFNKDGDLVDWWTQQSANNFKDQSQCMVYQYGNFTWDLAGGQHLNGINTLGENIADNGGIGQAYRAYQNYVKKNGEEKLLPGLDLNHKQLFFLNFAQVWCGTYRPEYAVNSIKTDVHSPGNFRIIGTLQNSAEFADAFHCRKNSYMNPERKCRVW

Compound	IC50 [1] [µM]	IC50 (Neprilysin) [µM]
O=C(O)CNC(=O)[C@H]1[C@H](S)CC[C@@H]1c1ccccc1	29	0.43
O=C(O)[C@@H]1CCCC2c3ccccc3C[C@H](CS)C(=O)N21 (some centres not stated)		> 0.3
O=C(O)CNC(=O)[C@@H]1[C@@H](S)CC[C@H]1c1ccccc1	110	0.48
O=C(O)CNC(=O)[C@H](CS)Cc1ccccc1 [(R)-THIORPHAN]	3	
O=C(O)CNC(=O)[C@@H](CS)Cc1ccccc1 [(S)-THIORPHAN]	1.8	
